# Activity calls are given as the source filed them. No cut-off for these calls is given here.
# Tests used:
# Protein E6 = Protein E6 (Human papillomavirus 16, UniProt P03126); assay: (§1) Inhibition of GST-tagged Human papillomavirus 16 protein E6 interaction with His-tagged human caspase 8 expressed in Escherichia coli after 1 hr incubation followed by overnight incubation by Alpha screening technique
# Caspase-8 (Homo sapiens) = Caspase-8 (Homo sapiens) (UniProt Q14790); assay: Inhibition of GST-tagged human caspase 8 interaction with His-tagged human caspase 8 expressed in Escherichia coli at 0.1 to 10 uM after 1 hr followed by overnight incubation by bead-based binding assay
# Chain of Caspase-8 (Homo sapiens) (Q14790 217-374 limits assumed): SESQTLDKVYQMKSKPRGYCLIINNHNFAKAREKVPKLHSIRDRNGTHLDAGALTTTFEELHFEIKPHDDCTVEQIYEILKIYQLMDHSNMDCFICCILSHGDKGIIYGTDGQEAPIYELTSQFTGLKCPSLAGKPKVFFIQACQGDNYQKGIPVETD
# Chain of Caspase-8 (Homo sapiens) (Q14790 385-479 limits assumed): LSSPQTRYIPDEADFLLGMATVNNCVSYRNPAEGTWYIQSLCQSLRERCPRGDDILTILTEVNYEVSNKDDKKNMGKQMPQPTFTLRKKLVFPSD
# [1] = biological target: Protein E6 (Human papillomavirus 16) (UniProt P03126); assay: Inhibition of GST-tagged Human papillomavirus 16 protein E6 interaction with His-tagged human caspase 8 expressed in Escherichia coli at 20 nM to 20 uM after 1 hr incubation followed by overnight incubation by Alpha screening technique
# Chain of Protein E6 (Human papillomavirus 16) (P03126 whole entry): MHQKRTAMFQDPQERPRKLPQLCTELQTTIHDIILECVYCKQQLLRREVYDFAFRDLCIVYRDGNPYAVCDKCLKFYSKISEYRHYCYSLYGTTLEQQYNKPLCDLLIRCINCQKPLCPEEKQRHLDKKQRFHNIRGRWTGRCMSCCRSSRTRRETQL
# [2] = biological target: Protein E6 (Human papillomavirus 16) (UniProt P03126); assay: as §1
# [3] = biological target: Protein E6 (Human papillomavirus 16) (UniProt P03126); assay: Inhibition of GST-tagged Human papillomavirus 16 protein E6 interaction with His-tagged human FADD expressed in Escherichia coli after 1 hr incubation followed by overnight incubation by Alpha screening technique
# Chain of Protein E6 (P03126 whole entry): as above
SMILES,inhibition [1],also measured
O=c1c(O)c(-c2ccc(O)cc2O)oc2cc(O)cc(O)c12 [MORIN],–,IC50 (Protein E6): 4 µM; inhibition (Caspase-8 (Homo sapiens)): inactive
COc1cc(O)c2c(=O)c(O)c(-c3ccc(O)c(O)c3)oc2c1,inactive,–
COc1cc(-c2oc3cc(O)cc(O)c3c(=O)c2O)ccc1O,inactive,–
O=c1c(O)c(-c2ccc(O)c(O)c2)oc2cc(O)cc(O)c12 [QUERCETIN],–,IC50 (Protein E6): > 20 µM
O=c1c(O)c(-c2ccccc2)oc2cc(O)ccc12,inactive,–
O=c1c(O)c(-c2ccc(O)cc2)oc2cc(O)cc(O)c12 [KAEMPFEROL],–,inhibition [2]: Dose-dependent effect; IC50 (Protein E6): > 20 µM; inhibition [3]: Dose-dependent effect
O=c1c(O)c(-c2cc(O)c(O)c(O)c2)oc2cc(O)cc(O)c12 [MYRICETIN],–,IC50 (Protein E6): 0.85 µM; inhibition (Caspase-8 (Homo sapiens)): inactive
COc1cc(-c2oc3cc(O)ccc3c(=O)c2O)ccc1O,inactive,–
O=C(O)Cc1cc(Cl)c2oc(-c3ccccc3)c(O)c(=O)c2c1,inactive,–
O=c1c(O)c(-c2ccccc2)oc2ccccc12,inactive,–
O=c1cc(-c2ccc(O)cc2)oc2cc(O)cc(O)c12,inactive,–
O=C(O)Cc1cc(Cl)c2oc(-c3ccc(Cl)cc3)c(O)c(=O)c2c1,inactive,–
O=c1c(O)c(-c2ccc(O)c(O)c2)oc2cc(O)ccc12,inactive,–
O=c1c(O)c(-c2ccccc2O)oc2cc(O)cc(O)c12,inactive,–
O=c1c(O)c(-c2ccccc2)oc2cc(O)cc(O)c12,Active,–
O=c1c(O)c(-c2ccccc2)oc2ccc(O)cc12,inactive,inhibition (Caspase-8 (Homo sapiens)): inactive
CC(C)c1ccc(-c2oc3c(Cl)cc(CC(=O)O)cc3c(=O)c2O)cc1,inactive,–
COc1ccc2c(=O)c(O)c(-c3ccccc3)oc2c1,inactive,–
O=c1cc(-c2ccccc2)oc2ccccc12,inactive,–

# Source: ChEMBL document CHEMBL2010646, “Small molecule inhibitors of the HPV16-E6 interaction with caspase 8” (Bioorg Med Chem Lett, 2012)
